In ChEMBL document CHEMBL4020828, “Design and Syntheses of Highly Potent Teixobactin Analogues against Staphylococcus aureus, Methicillin-Resistant Staphylococcus aureus (MRSA), and Vancomycin-Resistant Enterococci (VRE) in Vitro and in Vivo” (J Med Chem, 2018):
Values after ≈ are worked out from the molar mass of the structure shown. Positions of bridges follow the written chain, without caps; N, C: chain ends. Non-standard residues stand in square brackets, D forms with d. Residues, ends and D or L forms follow the SMILES beside them. dNMeF = CN[C@H](Cc1ccccc1)C(=O)O

What was measured:
[1] = system: Staphylococcus aureus; assay: Antibacterial activity against methicillin-resistant Staphylococcus aureus ATCC 33591 after 24 hrs; format: functional; settings: ATCC 33591, 24 h
[2] = system: Enterococcus faecalis; assay: Antibacterial activity against vancomycin-resistant Enterococcus faecalis ATCC 29212 after 24 hrs; format: functional; settings: ATCC 29212, 24 h
[3] = system: Bacillus cereus; assay: Antibacterial activity against Bacillus cereus ATCC 11788 after 24 hrs; format: functional; settings: ATCC 11788, 24 h
[4] = system: Staphylococcus saprophyticus; assay: Antibacterial activity against Staphylococcus saprophyticus ATCC 49453 after 24 hrs; format: functional; settings: ATCC 49453, 24 h
[5] = system: Staphylococcus aureus; assay: Antibacterial activity against Staphylococcus aureus 4299 after 24 hrs; format: functional; settings: Staphylococcus aureus, 4299, 24 h
[6] = system: Staphylococcus aureus; assay: Antibacterial activity against methicillin-resistant Staphylococcus aureus ATCC 700699 after 24 hrs; format: functional; settings: ATCC 700699, 24 h
[7] = system: Staphylococcus saprophyticus; assay: Antibacterial activity against Staphylococcus saprophyticus ATCC BAA 750 after 24 hrs; format: functional; settings: ATCC BAA 750, 24 h
[8] = system: Staphylococcus saprophyticus; assay: Antibacterial activity against Staphylococcus saprophyticus ATCC 49907 after 24 hrs; format: functional; settings: ATCC 49907, 24 h
[9] = system: Enterococcus faecalis; assay: Antibacterial activity against vancomycin-resistant Enterococcus faecalis isolate 1002 after 24 hrs; format: functional; settings: isolate 1002, 24 h
[10] = system: Bacillus subtilis (Bacillus subtilis); assay: Antibacterial activity against Bacillus subtilis ATCC 6633 after 24 hrs; settings: ATCC 6633, 24 h
[11] = system: Staphylococcus aureus; assay: Antibacterial activity against methicillin-resistant Staphylococcus aureus isolate 42412 after 24 hrs; format: functional; settings: isolate 42412, 24 h
[12] = system: Staphylococcus aureus; assay: Antibacterial activity against methicillin-resistant Staphylococcus aureus isolate 1003 after 24 hrs; format: functional; settings: isolate 1003, 24 h
[13] = system: Staphylococcus saprophyticus; assay: Antibacterial activity against Staphylococcus saprophyticus ATCC 15305 after 24 hrs; format: functional; settings: ATCC 15305, 24 h
[14] = system: Enterococcus faecalis; assay: Antibacterial activity against vancomycin-resistant Enterococcus faecalis isolate 1004 after 24 hrs; format: functional; settings: isolate 1004, 24 h
[15] = system: Enterococcus faecalis; assay: Antibacterial activity against vancomycin-resistant Enterococcus faecalis ATCC 700802 after 24 hrs; format: functional; settings: ATCC 700802, 24 h
[16] = system: Enterococcus faecalis; assay: Antibacterial activity against vancomycin-resistant Enterococcus faecalis isolate 1008 after 24 hrs; format: functional; settings: isolate 1008, 24 h
[17] = system: Staphylococcus aureus; assay: Antibacterial activity against methicillin-resistant Staphylococcus aureus isolate 21455 after 24 hrs; format: functional; settings: isolate 21455, 24 h
[18] = system: Enterococcus faecalis; assay: Antibacterial activity against vancomycin-resistant Enterococcus faecalis isolate 1001 after 24 hrs; format: functional; settings: isolate 1001, 24 h
[19] = system: Staphylococcus aureus; assay: Antibacterial activity against Staphylococcus aureus ATCC 29213 after 24 hrs; format: functional; settings: ATCC 29213, 24 h
[20] = system: Staphylococcus epidermidis; assay: Antibacterial activity against Staphylococcus epidermidis 12228 after 24 hrs; format: functional; settings: Staphylococcus epidermidis, 12228, 24 h

| SMILES | MIC [1] [µg/mL] | MIC [2] [µg/mL] | MIC [3] [µg/mL] | MIC [4] [µg/mL] | MIC [5] [µg/mL] | MIC [6] [µg/mL] | MIC [7] [µg/mL] | MIC [8] [µg/mL] | MIC [9] [µg/mL] | MIC [10] [µg/mL] | MIC [11] [µg/mL] | MIC [12] [µg/mL] | MIC [13] [µg/mL] | MIC [14] [µg/mL] | MIC [15] [µg/mL] | MIC [16] [µg/mL] | MIC [17] [µg/mL] | MIC [18] [µg/mL] | MIC [19] [µg/mL] | MIC [20] [µg/mL] |
| --- | --- | --- | --- | --- | --- | --- | --- | --- | --- | --- | --- | --- | --- | --- | --- | --- | --- | --- | --- | --- |
| CC[C@@H](C)[C@@H](NC(=O)[C@@H](CCC(N)=O)NC(=O)[C@H](CCCNC(=N)N)NC(=O)[C@@H](NC(=O)[C@@H](Cc1ccccc1)NC)[C@@H](C)CC)C(=O)N[C@H](C(=O)N[C@@H](CO)C(=O)N[C@H]1C(=O)N[C@@H](C)C(=O)N[C@@H](CC(C)C)C(=O)N[C@@H]([C@@H](C)CC)C(=O)O[C@H]1C)[C@@H](C)CC (H-[dNMeF]IR[dQ][dI]IS[dT]ALI; ester 8-C) | 0.125 (≈ 0.0984 µM) | 0.5 (≈ 0.394 µM) | < 0.0625 | < 0.0625 | 0.125 (≈ 0.0984 µM) | 0.5 (≈ 0.394 µM) | < 0.0625 | < 0.0625 | 0.5 (≈ 0.394 µM) | < 0.0625 | < 0.0625 | < 0.0625 | < 0.0625 | < 0.0625 | 0.5 (≈ 0.394 µM) | 0.125 (≈ 0.0984 µM) | 0.0312 (≈ 0.0246 µM) | 0.25 (≈ 0.197 µM) | 0.25 (≈ 0.197 µM) | < 0.0625 |
| CC[C@@H](C)[C@@H](NC(=O)[C@@H](CCC(N)=O)NC(=O)[C@H](CCCNC(=N)N)NC(=O)[C@@H](NC(=O)[C@@H](Cc1ccccc1)NC)[C@@H](C)CC)C(=O)N[C@H](C(=O)N[C@@H](CO)C(=O)N[C@H]1C(=O)N[C@@H](CCCNC(=N)N)C(=O)N[C@@H](CC(C)C)C(=O)N[C@@H]([C@@H](C)CC)C(=O)O[C@H]1C)[C@@H](C)CC (H-[dNMeF]IR[dQ][dI]IS[dT]RLI; ester 8-C) | 1 (≈ 0.738 µM) | 1 (≈ 0.738 µM) | 1 (≈ 0.738 µM) | < 0.0625 | 0.5 (≈ 0.369 µM) | 1 (≈ 0.738 µM) | < 0.0625 | < 0.0625 | 1 (≈ 0.738 µM) | < 0.0625 | 0.25 (≈ 0.184 µM) | 2 (≈ 1.48 µM) | < 0.0625 | 0.5 (≈ 0.369 µM) | 1 (≈ 0.738 µM) | 0.5 (≈ 0.369 µM) | 1 (≈ 0.738 µM) | 0.5 (≈ 0.369 µM) | 1 (≈ 0.738 µM) | < 0.0625 |
| CC[C@@H](C)[C@@H](NC(=O)[C@@H](CCCNC(=N)N)NC(=O)[C@H](CCCNC(=N)N)NC(=O)[C@@H](NC(=O)[C@@H](Cc1ccccc1)NC)[C@@H](C)CC)C(=O)N[C@H](C(=O)N[C@@H](CO)C(=O)N[C@H]1C(=O)N[C@@H](C)C(=O)N[C@@H](CC(C)C)C(=O)N[C@@H]([C@@H](C)CC)C(=O)O[C@H]1C)[C@@H](C)CC (H-[dNMeF]IR[dR][dI]IS[dT]ALI; ester 8-C) | 0.25 (≈ 0.193 µM) | 1 (≈ 0.77 µM) | 1 (≈ 0.77 µM) | < 0.0625 | 0.25 (≈ 0.193 µM) | 0.5 (≈ 0.385 µM) | < 0.0625 | < 0.0625 | 1 (≈ 0.77 µM) | < 0.0625 | 0.25 (≈ 0.193 µM) | 1 (≈ 0.77 µM) | < 0.0625 | 0.5 (≈ 0.385 µM) | 2 (≈ 1.54 µM) | 0.5 (≈ 0.385 µM) | 0.5 (≈ 0.385 µM) | 1 (≈ 0.77 µM) | 0.25 (≈ 0.193 µM) | < 0.0625 |
| CC[C@@H](C)[C@@H](NC(=O)[C@@H](CCCNC(=N)N)NC(=O)[C@H](CCCNC(=N)N)NC(=O)[C@@H](NC(=O)[C@@H](Cc1ccccc1)NC)[C@@H](C)CC)C(=O)N[C@H](C(=O)N[C@@H](CO)C(=O)N[C@H]1C(=O)N[C@@H](CCCNC(=N)N)C(=O)N[C@@H](CC(C)C)C(=O)N[C@@H]([C@@H](C)CC)C(=O)O[C@H]1C)[C@@H](C)CC (H-[dNMeF]IR[dR][dI]IS[dT]RLI; ester 8-C) | 1 (≈ 0.723 µM) | 4 (≈ 2.89 µM) | 1 (≈ 0.723 µM) | < 0.0625 | 1 (≈ 0.723 µM) | 2 (≈ 1.45 µM) | < 0.0625 | < 0.0625 | 8 (≈ 5.78 µM) | < 0.0625 | 2 (≈ 1.45 µM) | 2 (≈ 1.45 µM) | 0.25 (≈ 0.181 µM) | 4 (≈ 2.89 µM) | 4 (≈ 2.89 µM) | 8 (≈ 5.78 µM) | 2 (≈ 1.45 µM) | 2 (≈ 1.45 µM) | 1 (≈ 0.723 µM) | < 0.0625 |
| CC[C@@H](C)[C@@H](NC(=O)[C@@H](CCC(N)=O)NC(=O)[C@H](CO)NC(=O)[C@@H](NC(=O)[C@@H](Cc1ccccc1)NC)[C@@H](C)CC)C(=O)N[C@H](C(=O)N[C@@H](CO)C(=O)N[C@H]1C(=O)N[C@@H](CCCNC(=N)N)C(=O)N[C@@H](CC(C)C)C(=O)N[C@@H]([C@@H](C)CC)C(=O)O[C@H]1C)[C@@H](C)CC (H-[dNMeF]IS[dQ][dI]IS[dT]RLI; ester 8-C) | 0.125 (≈ 0.0972 µM) | 1 (≈ 0.777 µM) | 0.25 (≈ 0.194 µM) | < 0.0625 | 0.25 (≈ 0.194 µM) | 0.5 (≈ 0.389 µM) | < 0.0625 | < 0.0625 | 1 (≈ 0.777 µM) | < 0.0625 | < 0.0625 | 0.25 (≈ 0.194 µM) | < 0.0625 | 0.25 (≈ 0.194 µM) | 0.5 (≈ 0.389 µM) | 0.25 (≈ 0.194 µM) | 0.25 (≈ 0.194 µM) | 0.5 (≈ 0.389 µM) | 0.5 (≈ 0.389 µM) | < 0.0625 |
| CC[C@@H](C)[C@@H](NC(=O)[C@@H](CCCNC(=N)N)NC(=O)[C@H](CO)NC(=O)[C@@H](NC(=O)[C@@H](Cc1ccccc1)NC)[C@@H](C)CC)C(=O)N[C@H](C(=O)N[C@@H](CO)C(=O)N[C@H]1C(=O)N[C@@H](CCCNC(=N)N)C(=O)N[C@@H](CC(C)C)C(=O)N[C@@H]([C@@H](C)CC)C(=O)O[C@H]1C)[C@@H](C)CC (H-[dNMeF]IS[dR][dI]IS[dT]RLI; ester 8-C) | 1 (≈ 0.761 µM) | 1 (≈ 0.761 µM) | 1 (≈ 0.761 µM) | < 0.0625 | 0.5 (≈ 0.38 µM) | 1 (≈ 0.761 µM) | < 0.0625 | < 0.0625 | 1 (≈ 0.761 µM) | < 0.0625 | 1 (≈ 0.761 µM) | 0.5 (≈ 0.38 µM) | < 0.0625 | 1 (≈ 0.761 µM) | 1 (≈ 0.761 µM) | 1 (≈ 0.761 µM) | 1 (≈ 0.761 µM) | 1 (≈ 0.761 µM) | 1 (≈ 0.761 µM) | < 0.0625 |
